Results taken from ChEMBL document CHEMBL3885861, “Open TG-GATES”.

Organism: Rattus norvegicus
Test: Open TG-GATES - Regimen: Single
Format: toxicity, organism-based, Sprague-Dawley
Design: regimen Single, gender Male, age 6 weeks
Conditions: in vivo, po, 15 mg/kg, route gavage, dose level Low; for APTT / Bas / Eos / Fbg / Hb / Ht / Lym / MCH / MCHC / MCV / Mono / Neu / PT / Plat / RBC / Ret / WBC: tissue Blood; for KIDNEY_L / KIDNEY_R / KIDNEY_TOTAL: tissue Kidney; for LIVER: tissue Liver; for A/G / ALP / ALT / AST / BUN / CRE / Ca / Cl / DBIL / GLC / IP / K / LDH / Na / PL / RALB / TBIL / TC / TG / TP / gamma-GTP: tissue Plasma

Structure (SMILES): O=c1ccc2ccccc2o1 [COUMARIN]
- TERMINAL_BW (3 h): 178.4 g
- APTT (3 h): 16.5 s
- Bas (3 h): 0%
- Eos (3 h): 1%
- Fbg (3 h): 205.2 mg/dL
- Hb (3 h): 13.6 g/dL
- Ht (3 h): 40.8%
- Lym (3 h): 82.2%
- MCH (3 h): 21.3 pg
- MCHC (3 h): 33.4%
- MCV (3 h): 63.7 fL
- Mono (3 h): 3.8%
- Neu (3 h): 13.4%
- PT (3 h): 12.4 s
- Plat (3 h): 97.1 x10_4/uL
- RBC (3 h): 640 x10_4/ul
- Ret (3 h): 8.2%
- WBC (3 h): 97 x10_2/uL
- KIDNEY_L (3 h): 0.8 g
- KIDNEY_R (3 h): 0.8 g
- KIDNEY_TOTAL (3 h): 1.7 g
- LIVER (3 h): 8 g
- A/G (3 h): 2
- ALP (3 h): 1069.4 IU/L
- ALT (3 h): 41.6 IU/L
- AST (3 h): 71.8 IU/L
- BUN (3 h): 10.2 mg/dL
- CRE (3 h): 0.4 mg/dL
- Ca (3 h): 10.6 mg/dL
- Cl (3 h): 105.6 meq/L
- DBIL (3 h): 0.006 mg/dL
- GLC (3 h): 182.4 mg/dL
- IP (3 h): 10.4 mg/dL
- K (3 h): 4.7 meq/L
- LDH (3 h): 84.8 IU/L
- Na (3 h): 138 meq/L
- PL (3 h): 161.6 mg/dL
- RALB (3 h): 3.9 g/dL
- TBIL (3 h): 0.4 mg/dL
- TC (3 h): 86 mg/dL
- TG (3 h): 115 mg/dL
- TP (3 h): 5.9 g/dL
- gamma-GTP (3 h): 1.4 IU/L
- TERMINAL_BW (6 h): 180.2 g
- APTT (6 h): 16.4 s
- Bas (6 h): 0%
- Eos (6 h): 1.2%
- Fbg (6 h): 189.2 mg/dL
- Hb (6 h): 13.5 g/dL
- Ht (6 h): 40.5%
- Lym (6 h): 76%
- MCH (6 h): 21.9 pg
- MCHC (6 h): 33.2%
- MCV (6 h): 65.9 fL
- Mono (6 h): 5%
- Neu (6 h): 18.4%
- PT (6 h): 12.5 s
- Plat (6 h): 109.6 x10_4/uL
- RBC (6 h): 614.6 x10_4/ul
- Ret (6 h): 9.4%
- WBC (6 h): 95.4 x10_2/uL
- KIDNEY_L (6 h): 0.8 g
- KIDNEY_R (6 h): 0.8 g
- KIDNEY_TOTAL (6 h): 1.7 g
- LIVER (6 h): 8 g
- A/G (6 h): 2.1
- ALP (6 h): 872 IU/L
- ALT (6 h): 33.6 IU/L
- AST (6 h): 65 IU/L
- BUN (6 h): 9 mg/dL
- CRE (6 h): 0.4 mg/dL
- Ca (6 h): 10.3 mg/dL
- Cl (6 h): 107.2 meq/L
- DBIL (6 h): 0.004 mg/dL
- GLC (6 h): 189.6 mg/dL
- IP (6 h): 10.4 mg/dL
- K (6 h): 5.2 meq/L
- LDH (6 h): 88 IU/L
- Na (6 h): 138 meq/L
- PL (6 h): 136 mg/dL
- RALB (6 h): 3.7 g/dL
- TBIL (6 h): 0.3 mg/dL
- TC (6 h): 75.2 mg/dL
- TG (6 h): 63 mg/dL
- TP (6 h): 5.5 g/dL
- gamma-GTP (6 h): 1.2 IU/L
- TERMINAL_BW (9 h): 177.8 g
- APTT (9 h): 16.1 s
- Bas (9 h): 0%
- Eos (9 h): 0.8%
- Fbg (9 h): 198.2 mg/dL
- Hb (9 h): 13.2 g/dL
- Ht (9 h): 40.1%
- Lym (9 h): 78.2%
- MCH (9 h): 22 pg
- MCHC (9 h): 33%
- MCV (9 h): 66.6 fL
- Mono (9 h): 6.4%
- Neu (9 h): 14.6%
- PT (9 h): 12.3 s
- Plat (9 h): 103 x10_4/uL
- RBC (9 h): 602 x10_4/ul
- Ret (9 h): 8.7%
- WBC (9 h): 85.8 x10_2/uL
- KIDNEY_L (9 h): 0.8 g
- KIDNEY_R (9 h): 0.9 g
- KIDNEY_TOTAL (9 h): 1.7 g
- LIVER (9 h): 7.2 g
- A/G (9 h): 2.3
- ALP (9 h): 849 IU/L
- ALT (9 h): 30.6 IU/L
- AST (9 h): 62 IU/L
- BUN (9 h): 9.8 mg/dL
- CRE (9 h): 0.5 mg/dL
- Ca (9 h): 10.6 mg/dL
- Cl (9 h): 106.8 meq/L
- DBIL (9 h): 0.03 mg/dL
- GLC (9 h): 195 mg/dL
- IP (9 h): 11.6 mg/dL
- K (9 h): 5.1 meq/L
- LDH (9 h): 102 IU/L
- Na (9 h): 139.4 meq/L
- PL (9 h): 141 mg/dL
- RALB (9 h): 3.8 g/dL
- TBIL (9 h): 0.3 mg/dL
- TC (9 h): 81.4 mg/dL
- TG (9 h): 37.4 mg/dL
- TP (9 h): 5.5 g/dL
- gamma-GTP (9 h): 1.2 IU/L
- TERMINAL_BW (24 h): 189.8 g
- APTT (24 h): 15.7 s
- Bas (24 h): 0%
- Eos (24 h): 1%
- Fbg (24 h): 208.2 mg/dL
- Hb (24 h): 13.2 g/dL
- Ht (24 h): 39.7%
- Lym (24 h): 74.2%
- MCH (24 h): 22.3 pg
- MCHC (24 h): 33.3%
- MCV (24 h): 66.9 fL
- Mono (24 h): 10.6%
- Neu (24 h): 14.2%
- PT (24 h): 12.2 s
- Plat (24 h): 102.6 x10_4/uL
- RBC (24 h): 594.2 x10_4/ul
- Ret (24 h): 8.2%
- WBC (24 h): 102.3 x10_2/uL
- KIDNEY_L (24 h): 0.9 g
- KIDNEY_R (24 h): 0.9 g
- KIDNEY_TOTAL (24 h): 1.8 g
- LIVER (24 h): 9.3 g
- A/G (24 h): 2.1
- ALP (24 h): 972.2 IU/L
- ALT (24 h): 43 IU/L
- AST (24 h): 68.2 IU/L
- BUN (24 h): 14 mg/dL
- CRE (24 h): 0.5 mg/dL
- Ca (24 h): 10.9 mg/dL
- Cl (24 h): 106.2 meq/L
- DBIL (24 h): 0.01 mg/dL
- GLC (24 h): 190.8 mg/dL
- IP (24 h): 8.4 mg/dL
- K (24 h): 5.2 meq/L
- LDH (24 h): 97.4 IU/L
- Na (24 h): 137.8 meq/L
- PL (24 h): 140.4 mg/dL
- RALB (24 h): 3.8 g/dL
- TBIL (24 h): 0.3 mg/dL
- TC (24 h): 76.8 mg/dL
- TG (24 h): 77.2 mg/dL
- TP (24 h): 5.7 g/dL
- gamma-GTP (24 h): 1 IU/L
